Source: paper PMC4305287, “Two Novel α7 Nicotinic Acetylcholine Receptor Ligands: In Vitro Properties and Their Efficacy in Collagen-Induced Arthritis in Mice” (PLoS ONE, 2015)

Experiments:
[1] = system: collagen-induced arthritis; design: method as in PMID 19116908; conditions: cited from earlier work
[2] = system: T1, human α7 nAChR primed with PNU-120596; assay: electrophysiology of oocytes primed with PNU-120596; type: biochemical
T1 construct: expressed in transfected cells; host or cells: Xenopus laevis oocytes injected with cRNA; clones from Dr. Jon Lindstrom (α7) and Dr. Millet Treinin (RIC-3)
Protocol: Each oocyte received two initial control applications of 300 μM ACh, followed by the experimental drug application, and subsequent control application of 300 μM ACh, unless otherwise indicated. Responses to experimental drug applications were determined relative to the preceding ACh control responses in order to normalize the data, compensating for the varying levels of channel expression among the oocytes. Responses for α7 nAChR were calculated as net charge, since peak currents inaccurately report the agonist concentration dependence of α7 nAChR-mediated responses. […] Imax, n, and the EC50 were all unconstrained for the fitting procedures except in the case of the ACh concentration-response curves.

[3] = system: microglia; design: method as in PMID 22884467; conditions: cited from earlier work
[4] = system: memory retention; design: method as in PMID 19845675; conditions: cited from earlier work

SMILES: O=C1NCC2(CN3CCC2CC3)O1 (centres unmarked) [AR-R17779]
- effect on arthritis activity in CIA [1]: ameliorates arthritis activity

SMILES: CCN1C[C@]2(COC(=O)c3ccccc3N3C(=O)C[C@H](C)C3=O)CC[C@H](OC)[C@@]34[C@@H]5C[C@H]6[C@H](OC)[C@@H]5[C@](O)(C[C@@H]6OC)[C@@](O)([C@@H](OC)[C@H]23)[C@@H]14 [MLA, methyllycaconitine]
- ion channel response of PNU-120596 primed cells ([2]; after 60 s priming with 300 μM PNU-120596, PMP-311 1 μM, PMP-072 10 μM, MLA 10 μM): fail to activate the primed cells

SMILES: O=C(c1ccc(-c2cccc(C(F)(F)F)c2)o1)N1CCN2CCC1CC2 [NS-6740]
- LPS-induced TNF release in microglia [3]: reduce LPS-induced TNF release
- memory retention in a cognitive mouse model [4]: unable to improve memory retention

SMILES: COc1cc(OC)c(NC(=O)Nc2cc(C)on2)cc1Cl [PNU-120596]
- ion channel current during PNU-120596 application alone ([2]; 300 μM for 60 s): No ion channel current was stimulated
